Test results reported in patent US9290440B2, “Bicyclic compound” (TOA EIYO LTD., priority 2012, dated 2016).

System: abdominal aorta ring specimen
Assay: Evaluation of blood vessel relaxing function (phenylephrine-contracted abdominal aorta ring)
Conditions: relaxation of rat abdominal aorta contracted with 1 μmol/L phenylephrine; without vs with 10 μmol/L ODQ
Method: The representative compounds of the present invention were evaluated by blood vessel relaxing function according to the following Test Example. In the assay, bleeding from the upper part of a heart of a rat (male, SD) was performed under anesthesia with pentobarbital (30 mg/kg) and then abdominal aorta was extracted. The connecting tissue adhered around blood vessel was removed from the abdominal aorta in an ice-cooled Krebs-Henseleit solution (KH solution) (118 mmol/L sodium chloride, 4.7 mmol/L potassium chloride, 1.2 mmol/L magnesium sulfate, 1.2 mmol/L potassium dihydrogen phosphate, 25 mmol/L sodium hydrogen carbonate, 2.5 mmol/L calcium chloride, and 10 mmol/L glucose, pH 7.4). After that, a ring specimen with length of 2 mm was prepared and fixed in 5 mL organ bath filled with a KH solution. The KH solution was kept at 37° C. and aerated with a mixture gas of 95% O2 and 5% CO2. The specimen was stabilized for 1 hour with static tension of 1 g. The KH solution was exchanged twice during that time. The tension on the specimen was recorded on a multi-channel recorder via pickup and amplifier. After the stabilization of the specimen, contraction was caused by using 1 μmol/L phenylephrine (Phe), and cumulative administration of each compound (0.001, 0.01, 0.03, 0.1, 0.3, 1, 3, 10, 30, 100, 1000, 10000 nmol/L) was performed. For the evaluation of a case in which 1H-1,2,4-oxadiazole-(4,3a)-quinoxalin-1-one (ODQ) is contained, 10 μmol/L ODQ was added 10 minutes before the Phe addition, and the same evaluation as above was performed.
EC50 value was calculated using four-parameter logistics model using Assay Explorer (Accelrys). The test compound solution was dissolved in DMSO such that the concentration of each test compound is 1000 times the final concentration.

SMILES | EC50 Ratio (ODQ−/ODQ+)
O=C(O)CCCCN(CCc1ccccc1OCc1ccc(CCc2ccccc2)cc1)Cc1ccc(C(=O)O)cc1 [Cinaciguat, reference compound] | 12.4
O=C(O)CCCCN(CCc1ccccc1OCc1ccc(SCc2ccccc2)cc1)C1CCCc2cc(C(=O)O)ccc21 (stereo not drawn) [Example 15, 5-{N-[2-[2-(4-Benzylsulfanylbenzyloxyl)phenyl]ethyl]-N-(4-carboxybutyl)amino}-5,6,7,8-tetrahydronaphthalene-2-carboxylic acid] | 9.0
O=C(O)CCCCN(CCc1ccccc1OCc1cccc2c1CCCC2)C1CCCc2cc(C(=O)O)ccc21 (stereo not drawn) [Example 29, 5-{N-(4-Carboxybutyl)-N-[2-[2-(5,6,7,8-tetrahydronaphthalene-1-ylmethoxy)phenyl]ethyl]amino}-5,6,7,8-tetrahydronaphthalene-2-carboxylic acid] | 5.0
